Key:
[1] = tested on: rabbit serum obtained by immunizing a rabbit with the SARS-CoV strain Frankfurt 1; assay type: binding; design: Binding of a rabbit serum to linear peptides / Binding of a rabbit serum to looped peptides / Rabbit serum linear peptides / Rabbit serum looped peptides / Binding of a rabbit serum to linear peptides of protein N of SARS-CoV Urbani (Rabbit serum linear peptides) / Binding of a rabbit serum to looped/cyclic peptides of protein N of SARS-CoV Urbani (Rabbit serum looped peptides): unit not given here
[2] = tested on: control sera (pooled serum of ten healthy LUMC hospital workers; commercial negative donor pooled serum from the Dutch bloodbank); assay type: binding, human; design: Binding of Control serum LUMC to linear peptides / Binding of Control serum Blood-bank to linear peptides / Binding of Control serum LUMC to looped peptides / Binding of Control Serum Blood-Bank to Looped peptides / Binding of Control serum LUMC to linear peptides of the protein M of SARS-CoV Urbani / Binding of Control serum Blood-bank to linear peptides of the protein M of SARS-CoV Urbani / Binding of Control serum LUMC to looped peptides of the protein M of SARS-CoV Urbani / Binding of Control Serum Blood-Bank to Looped peptides of the protein M of SARS-CoV Urbani: unit not given here
[3] = tested on: antibodies in sera from SARS patients (sera 1a, 1b, 2, 6, 37, 62, London, SARS-yellow, SARS-green); assay type: binding, human; design: Binding of serum 6 to linear peptides of protein X1 of SARS-CoV Urbani / Binding of serum 37 to linear peptides of protein X1 of SARS-CoV Urbani / Binding of serum 6 to looped/cyclic peptide (PEPSCAN-ELISA) / Binding of serum 37 to looped/cyclic peptide (PEPSCAN-ELISA) / Binding of serum 37 to looped/cyclic peptides of protein X1 of SARS-CoV Urbani / Binding of serum 6 to linear peptides of protein X2 / Binding of serum 37 to linear peptides of protein X2 / Binding of serum 37 to looped/cyclic peptides of protein X2 of SARS-CoV Urbani / Binding of serum 6 to linear peptides of protein M of SARS-CoV Urbani / Binding of serum 37 to linear peptides of protein M of SARS-CoV Urbani / Binding of serum 6 to looped/cyclic peptides of protein M of SARS-CoV Urbani / Binding of serum 37 to looped/cyclic peptides of protein M of SARS-CoV Urbani / Binding of serum 6 to linear peptides of protein X3 of SARS-CoV Urbani / Binding of serum 37 to linear peptides of protein X3 of SARS-CoV Urbani / Binding of serum 37 to looped/cyclic peptides of protein X3 of SARS-CoV Urbani / Binding of serum 6 to linear peptides of protein X4 of SARS-CoV Urbani / Binding of serum 37 to linear peptides of protein X4 of SARS-CoV Urbani / Binding of serum 37 to looped/cyclic peptides of protein X4 of SARS-CoV Urbani / Binding of serum 6 to linear peptides of protein X5 of SARS-CoV Urbani / Binding of serum 37 to linear peptides of protein X5 of SARS-CoV Urbani / Binding of serum 37 to looped/cyclic peptides of protein X5 of SARS-CoV Urbani / Binding of serum 6 to linear peptides of protein N of SARS-CoV Urbani / Binding of serum 37 to linear peptides of protein N of SARS-CoV Urbani / Binding of serum 6 to linear peptide (PEPSCAN-ELISA) / Binding of serum 1a to looped/cyclic peptides of protein N of SARS-CoV Urbani / Binding of serum 1b to looped/cyclic peptides of protein N of SARS-CoV Urbani / Binding of serum 2 to looped/cyclic peptides of protein N of SARS-CoV Urbani / Binding of serum 6 to looped/cyclic peptides of protein N of SARS-CoV Urbani / Binding of serum 37 to looped/cyclic peptides of protein N of SARS-CoV Urbani / Binding of serum 62 to looped/cyclic peptides of protein N of SARS-CoV Urbani / Binding of serum London to looped/cyclic peptides of protein N of SARS-CoV Urbani / Binding of serum SARS-green to looped/cyclic peptides of protein N of SARS-CoV Urbani: unit not given here

## LIYFLQCINACRIIM
[1]
  Binding of a rabbit serum to linear peptides: 0.1
  Binding of a rabbit serum to looped peptides: 0.3
[2]
  Binding of Control Serum Blood-Bank to Looped peptides: 0.9
  Binding of Control serum Blood-bank to linear peptides: 0.6
  Binding of Control serum LUMC to linear peptides: 0.6
  Binding of Control serum LUMC to looped peptides: 0.7
[3]
  Binding of serum 1a to linear peptides of protein X1 of SARS-CoV Urbani: 0.7
  Binding of serum 1a to looped/cyclic peptide (PEPSCAN-ELISA): 0.2
  Binding of serum 1b to linear peptides of protein X1 of SARS-CoV Urbani: 0.6
  Binding of serum 1b to looped/cyclic peptide (PEPSCAN-ELISA): 0.4
  Binding of serum 2 to linear peptides of protein X1 of SARS-CoV Urbani: 0.6
  Binding of serum 2 to looped/cyclic peptide (PEPSCAN-ELISA): 0.7
  Binding of serum 6 to linear peptides of protein X1 of SARS-CoV Urbani: 0.5
  Binding of serum 6 to looped/cyclic peptide (PEPSCAN-ELISA): 1.2
  Binding of serum 37 to linear peptides of protein X1 of SARS-CoV Urbani: 0.6
  Binding of serum 37 to looped/cyclic peptide (PEPSCAN-ELISA): 0.2
  Binding of serum 62 to linear peptides of protein X1 of SARS-CoV Urbani: 0.6
  Binding of serum 62 to looped/cyclic peptide (PEPSCAN-ELISA): 0.4
  Binding of serum London to linear peptides of protein X1 of SARS-CoV Urbani: 0.3
  Binding of serum London to looped/cyclic peptide (PEPSCAN-ELISA): 1.1
  Binding of serum SARS-green to linear peptides of protein X1 of SARS-CoV Urbani: 0.2
  Binding of serum SARS-green to looped/cyclic peptide (PEPSCAN-ELISA): 0.6
  Binding of serum SARS-yellow to linear peptides of protein X1 of SARS-CoV Urbani: 0.4
  Binding of serum SARS-yellow to looped/cyclic peptide (PEPSCAN-ELISA): 0.6

## LLQFAYSNRNRFLYI
[1]
  Rabbit serum linear peptides: 0.2
  Rabbit serum looped peptides: 0.4
[2]
  Binding of Control Serum Blood-Bank to Looped peptides of the protein M of SARS-CoV Urbani: 0.5
  Binding of Control serum Blood-bank to linear peptides of the protein M of SARS-CoV Urbani: 0.6
  Binding of Control serum LUMC to linear peptides of the protein M of SARS-CoV Urbani: 0.6
  Binding of Control serum LUMC to looped peptides of the protein M of SARS-CoV Urbani: 0.5
[3]
  Binding of serum 1a to linear peptides of protein M of SARS-CoV Urbani: 0.7
  Binding of serum 1a to looped/cyclic peptides of protein M of SARS-CoV Urbani: 0.7
  Binding of serum 1b to linear peptides of protein M of SARS-CoV Urbani: 0.6
  Binding of serum 1b to looped/cyclic peptides of protein M of SARS-CoV Urbani: 0.5
  Binding of serum 2 to linear peptides of protein M of SARS-CoV Urbani: 0.4
  Binding of serum 2 to looped/cyclic peptides of protein M of SARS-CoV Urbani: 0.6
  Binding of serum 6 to linear peptides of protein M of SARS-CoV Urbani: 0.3
  Binding of serum 6 to looped/cyclic peptides of protein M of SARS-CoV Urbani: 0.6
  Binding of serum 37 to linear peptides of protein M of SARS-CoV Urbani: 0.3
  Binding of serum 37 to looped/cyclic peptides of protein M of SARS-CoV Urbani: 0.5
  Binding of serum 62 to linear peptides of protein M of SARS-CoV Urbani: 0.3
  Binding of serum 62 to looped/cyclic peptides of protein M of SARS-CoV Urbani: 0.4
  Binding of serum London to linear peptides of protein M of SARS-CoV Urbani: 0.3
  Binding of serum London to looped/cyclic peptides of protein M of SARS-CoV Urbani: 0.2
  Binding of serum SARS-green to linear peptides of protein M of SARS-CoV Urbani: 0.5
  Binding of serum SARS-green to looped/cyclic peptides of protein M of SARS-CoV Urbani: 0.1
  Binding of serum SARS-yellow to linear peptides of protein M of SARS-CoV Urbani: 0.2
  Binding of serum SARS-yellow to looped/cyclic peptides of protein M of SARS-CoV Urbani: 0.5
